Assays:
Assay in all cases: selective drug sensitivity score (sDSS, relative to normal bone marrow) (sDSS (score)); higher = more potent and effective on the cell line relative to normal bone marrow cells
Settings in all cases: 72 h
[1] = test system: KASUMI-10
[2] = test system: MOLT-4
[3] = test system: KASUMI-9
[4] = test system: PF-382
[5] = test system: LC4-1
[6] = test system: PEER
[7] = test system: COG-LL-332h
[8] = test system: ALL-SIL
[9] = test system: COG-LL-317
[10] = test system: JURKAT
[11] = test system: MHH-CALL-2
[12] = test system: MHH-CALL-4
[13] = test system: NALL-1
[14] = test system: DND-41
[15] = test system: HAL-01
[16] = test system: KOPN-8
[17] = test system: KASUMI-2
[18] = test system: MHH-CALL-3
[19] = test system: NALM-6
[20] = test system: REH
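Note: ALL cell lines in 384-well plates, five doses spanning 10,000-fold, each plate scaled between vehicle and 100 µmol/L benzalkonium chloride controls, sDSS an adapted area-under-curve metric.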

Structure (SMILES) | selective drug sensitivity score [1] | selective drug sensitivity score [2] | selective drug sensitivity score [3] | selective drug sensitivity score [4] | selective drug sensitivity score [5] | selective drug sensitivity score [6] | selective drug sensitivity score [7] | selective drug sensitivity score [8] | selective drug sensitivity score [9] | selective drug sensitivity score [10] | selective drug sensitivity score [11] | selective drug sensitivity score [12] | selective drug sensitivity score [13] | selective drug sensitivity score [14] | selective drug sensitivity score [15] | selective drug sensitivity score [16] | selective drug sensitivity score [17] | selective drug sensitivity score [18] | selective drug sensitivity score [19] | selective drug sensitivity score [20]
COc1cc2c(Oc3ccc(NC(=O)C4(C(=O)Nc5ccc(F)cc5)CC4)cc3F)ccnc2cc1OCCCN1CCOCC1 [Foretinib] (top concentration 1000 nM) | 17.8 | 0.64 | -0.06 | 0.34 | 2.04 | 5.04 | 4.74 | 13.6 | 0.44 | -4.36 | 7.04 | 1.64 | 1.74 | -4.46 | 3.34 | 7.84 | -2.96 | -3.56 | 0.74 | 0.24
COc1cc(Nc2ncc(F)c(Nc3ccc4c(n3)N(COP(=O)(O)O)C(=O)C(C)(C)O4)n2)cc(OC)c1OC [Fostamatinib] (top concentration 2500 nM) | 8.66 | -2.04 | 1.76 | -1.14 | 2.56 | 0.66 | -0.44 | 1.96 | -2.84 | -2.14 | 0.56 | -2.74 | -2.64 | -0.64 | 0.76 | 4.66 | -2.84 | -1.44 | 2.96 | -1.84
CC1(C)OCCn2c1nc1c(N3CCOCC3)nc(-c3cnc(N)nc3)nc12 [GDC-0084] (top concentration 10000 nM) | 3.9 | 6.9 | 9.5 | 5.6 | 4.2 | 2 | 3.7 | 4.8 | 3.1 | 2.9 | 11.2 | 10.7 | 8.7 | 1.8 | 11 | 13.2 | 6 | 7 | 7 | 8.8
CC(C)c1cc(-c2n[nH]c(=O)n2-c2ccc3c(ccn3C)c2)c(O)cc1O [Ganetespib] (top concentration 1000 nM) | 4.64 | 3.14 | 0.14 | 1.64 | 1.44 | -1.86 | 6.64 | 1.14 | 8.64 | -2.46 | -1.36 | -0.56 | -1.86 | 2.94 | 0.74 | 10.1 | 6.04 | 6.64 | 2.34 | 0.54
CCc1nc(C(N)=O)c(Nc2ccc(N3CCC(N4CCN(C)CC4)CC3)c(OC)c2)nc1NC1CCOCC1 [Gilteritinib] (top concentration 1000 nM) | 10.4 | -2.52 | 2.88 | -2.52 | 0.38 | -2.22 | -2.52 | -2.52 | -2.52 | -2.52 | -1.32 | -2.52 | -2.52 | -2.52 | -1.82 | 3.08 | -2.52 | -2.52 | -2.52 | -2.52
CCN(CC)Cc1ccc2cc(COC(=O)Nc3ccc(C(=O)NO)cc3)ccc2c1 [Givinostat] (top concentration 1000 nM) | 4.7 | 2.1 | 7.6 | 2.9 | 5.5 | 6.1 | -0.3 | 8.6 | 4.1 | 0.9 | 8.6 | 3.4 | -0.4 | 2.4 | -2.4 | 13.5 | 10.6 | 15.6 | 1.2 | 0.2
COCCNCc1ccc(-c2cc3nccc(Oc4ccc(NC(=S)NC(=O)Cc5ccc(F)cc5)cc4F)c3s2)nc1 [Glesatinib] (top concentration 2500 nM) | 8.74 | -0.96 | -0.36 | -0.56 | 1.94 | 4.54 | 4.54 | 10.4 | 0.64 | -1.96 | 0.94 | 0.14 | 2.94 | 0.44 | 2.44 | 6.14 | 4.74 | -0.36 | -1.96 | 4.44
C=CC(=O)N1CCC[C@@H](n2nc(-c3ccc(Oc4ccccc4)cc3)c3c(N)ncnc32)C1 [Ibrutinib] (top concentration 1000 nM) | 0 | 1.4 | 1.3 | 0 | 1 | 0.6 | 2.4 | 0 | 0 | 0 | 0.1 | 0 | 0 | 0 | 1.9 | 2.7 | 0 | 0 | 2.4 | 0
CC[C@H](Nc1ncnc2[nH]cnc12)c1nc2cccc(F)c2c(=O)n1-c1ccccc1 [Idelalisib] (top concentration 10000 nM) | -0.26 | -1.36 | 7.54 | -0.36 | -0.16 | -2.16 | 0.04 | 0.04 | 0.04 | -1.76 | 11.3 | 4.04 | 3.54 | -1.16 | 16.1 | 5.64 | 8.04 | 9.44 | 7.24 | 2.74
O=C(Nc1ccncc1)C(=O)c1cn(Cc2ccc(Cl)cc2)c2ccccc12 [Indibulin] (top concentration 10000 nM) | 11.3 | 9.64 | 12 | 4.74 | 17.3 | 11.7 | 6.34 | 23.4 | 6.24 | 15.1 | 5.74 | 1.54 | 9.94 | 5.54 | 5.34 | 17.9 | 7.14 | 1.64 | 0.34 | 4.14
CC(C)C[C@H](NC(=O)CNC(=O)c1cc(Cl)ccc1Cl)B(O)O [Ixazomib] (top concentration 1000 nM) | 3.16 | 5.46 | 6.56 | 7.86 | 6.46 | 7.66 | 8.16 | 7.56 | 6.26 | 4.86 | 5.26 | 7.96 | 6.56 | 9.36 | 8.26 | 6.26 | 4.66 | 8.96 | 6.66 | 6.76
CC(C)NC(=O)COc1cccc(-c2nc(Nc3ccc4[nH]ncc4c3)c3ccccc3n2)c1 [KD025] (top concentration 5000 nM) | -5.36 | -2.76 | 4.04 | 1.04 | 6.44 | -1.56 | -0.56 | 1.24 | -5.36 | -3.06 | 3.94 | 1.04 | 2.54 | -5.36 | -3.26 | 0.74 | -5.06 | -5.36 | 1.14 | -5.36
Nc1cccc2c1CN(C1CCC(=O)NC1=O)C2=O (stereo not given) [Lenalidomide] (top concentration 100000 nM) | 3.22 | -2.28 | 7.42 | -2.28 | -0.58 | -1.28 | 0.22 | -0.88 | 2.92 | -2.28 | 1.92 | 5.42 | -2.28 | 2.12 | 4.22 | 1.02 | -2.28 | -2.28 | -2.28 | -2.28
Sc1ncnc2nc[nH]c12 [Mercaptopurine] (top concentration 10000 nM) | 6.9 | 8.7 | 15.4 | 9.2 | 17.1 | 6.7 | 15.5 | 14.8 | 23.7 | 10.3 | 13.4 | 11.1 | 10.7 | 11.1 | 12.4 | 14.9 | 12.4 | 0 | 9.1 | 17
Cc1ccc(C(=O)Nc2ccc(Oc3cc4cnn(C)c4cc3-c3cn[nH]c3)c(F)c2)c(=O)n1-c1ccc(F)cc1 [Merestinib] (top concentration 1000 nM) | 14.8 | -0.62 | 0.18 | -0.62 | -0.62 | -0.22 | -0.62 | 0.28 | -0.62 | -0.62 | 9.68 | -0.42 | 8.28 | -0.62 | 5.68 | -0.62 | -0.62 | -0.62 | -0.62 | -0.62
CNC(=O)c1nn(C)c2c1C(C)(C)Cc1cnc(Nc3ccc(N4CCN(C)CC4)cc3)nc1-2 [Milciclib] (top concentration 10000 nM) | 12.6 | 3.84 | 9.94 | 4.84 | 5.94 | 5.84 | 3.24 | 10.9 | 8.94 | 4.34 | 9.54 | -0.06 | -0.86 | 9.04 | 5.94 | 5.84 | -2.56 | -5.26 | 1.94 | 4.44
N#CCNC(=O)c1ccc(-c2ccnc(Nc3ccc(N4CCOCC4)cc3)n2)cc1 [Momelotinib] (top concentration 10000 nM) | 0.98 | -4.72 | -0.12 | -3.42 | -4.62 | 1.08 | -0.82 | -1.82 | -5.32 | -5.12 | -2.22 | -1.12 | -6.72 | -0.32 | -5.22 | -1.62 | -5.82 | -9.42 | -0.32 | -4.82
Cc1ccc(C(=O)Nc2cccc(C(F)(F)F)c2)cc1Nc1nc(-c2cccnc2)nc2c1cnn2C [NVP-BHG712] (top concentration 10000 nM) | 3.38 | 3.08 | 5.18 | 3.38 | 3.38 | 8.18 | 5.98 | 13.3 | 1.48 | 2.98 | 5.28 | 1.18 | 2.98 | 5.38 | 2.98 | 7.78 | 2.38 | 1.48 | -2.32 | 6.18
